Assay results taken from the supplement of paper PMC10307832.

How the values were obtained:
Assay in all cases: relative viability (nuclei count vs DMSO), 5 days (fraction); higher = more cells survive
Sorafenib + Lapatinib = compound: CNC(=O)c1cc(Oc2ccc(NC(=O)Nc3ccc(Cl)c(C(F)(F)F)c3)cc2)ccn1 [Sorafenib] + CS(=O)(=O)CCNCc1ccc(-c2ccc3ncnc(Nc4ccc(OCc5cccc(F)c5)c(Cl)c4)c3c2)o1 [Lapatinib] (partner 2 µM)
Summary of the method: (§1)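 For relative viability, nuclei counts in treated wells were divided by those in vehicle wells. Lung cancer cell lines had been pin-tool dosed in 1536-well plates the day after seeding and cultured for 5 days, then fixed and stained in one step (final 0.05% Triton X-100, 1% formaldehyde, 1 ug/ml Hoechst) and imaged at 4×. Doses were one drug alone or a fixed anchor-drug dose plus five library-drug doses (not always all listed) in √10 steps, and values are duplicate-plate medians.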

Sorafenib + Dasatinib = compound: CNC(=O)c1cc(Oc2ccc(NC(=O)Nc3ccc(Cl)c(C(F)(F)F)c3)cc2)ccn1 [Sorafenib] + Cc1nc(Nc2ncc(C(=O)Nc3c(C)cccc3Cl)s2)cc(N2CCN(CCO)CC2)n1 [Dasatinib] (partner 0.075 µM)
Summary of the method: as §1

Sorafenib + Decitabine = compound: CNC(=O)c1cc(Oc2ccc(NC(=O)Nc3ccc(Cl)c(C(F)(F)F)c3)cc2)ccn1 [Sorafenib] + Nc1ncn([C@H]2C[C@H](O)[C@@H](CO)O2)c(=O)n1 [Decitabine] (partner 2 µM)
Summary of the method: as §1

Sorafenib + Vorinostat = compound: CNC(=O)c1cc(Oc2ccc(NC(=O)Nc3ccc(Cl)c(C(F)(F)F)c3)cc2)ccn1 [Sorafenib] + O=C(CCCCCCC(=O)Nc1ccccc1)NO [Vorinostat] (partner 1 µM)
Summary of the method: as §1

Sorafenib + Olaparib = compound: CNC(=O)c1cc(Oc2ccc(NC(=O)Nc3ccc(Cl)c(C(F)(F)F)c3)cc2)ccn1 [Sorafenib] + O=C(c1cc(Cc2n[nH]c(=O)c3ccccc23)ccc1F)N1CCN(C(=O)C2CC2)CC1 [Olaparib] (partner 8 µM)
Summary of the method: as §1

Cell Line	relative viability (Sorafenib + Lapatinib; first compound 0.08 µM)	relative viability (Sorafenib + Lapatinib; first compound 0.253 µM)	relative viability (Sorafenib + Lapatinib; first compound 2.53 µM)	relative viability (Sorafenib + Lapatinib; first compound 8 µM)	relative viability (Sorafenib + Dasatinib; first compound 0.08 µM)	relative viability (Sorafenib + Dasatinib; first compound 0.253 µM)	relative viability (Sorafenib + Dasatinib; first compound 2.53 µM)	relative viability (Sorafenib + Dasatinib; first compound 8 µM)	relative viability (Sorafenib + Decitabine; first compound 0.08 µM)	relative viability (Sorafenib + Decitabine; first compound 0.253 µM)	relative viability (Sorafenib + Decitabine; first compound 2.53 µM)	relative viability (Sorafenib + Decitabine; first compound 8 µM)	relative viability (Sorafenib + Vorinostat; first compound 0.08 µM)	relative viability (Sorafenib + Vorinostat; first compound 0.253 µM)	relative viability (Sorafenib + Vorinostat; first compound 2.53 µM)	relative viability (Sorafenib + Vorinostat; first compound 8 µM)	relative viability (Sorafenib + Olaparib; first compound 0.08 µM)	relative viability (Sorafenib + Olaparib; first compound 0.253 µM)	relative viability (Sorafenib + Olaparib; first compound 2.53 µM)	relative viability (Sorafenib + Olaparib; first compound 8 µM)
NCI-H460	1.02	0.868	0.915	0.807	0.554	0.541	0.498	0.416	0.472	0.447	0.457	0.357	0.748	0.582	0.611	0.363	0.399	0.335	0.345	0.324
NCI-H520	0.92	0.71	0.919	0.402	0.231	0.225	0.216	0.174	–	0.421	0.446	0.299	0.673	0.597	0.606	0.27	0.356	0.281	0.313	0.126
NCI-H596	1.07	1.11	1.52	0.995	0.68	0.53	0.55	0.461	0.987	1.01	1.16	1.05	0.748	0.547	0.929	0.717	0.773	0.73	0.751	0.79
NCI-H647	1.18	0.868	1.19	0.426	0.245	0.172	0.174	0.135	0.4	0.316	0.355	0.184	0.473	0.453	0.257	0.0463	0.568	0.524	0.356	0.0229
NCI-H650	0.986	0.855	0.946	0.611	0.508	0.367	0.462	0.425	0.343	0.295	0.34	0.278	0.855	0.257	0.371	0.449	0.377	0.312	0.295	0.227
NCI-H661	0.595	0.509	0.446	0.507	0.978	0.82	0.815	0.215	0.57	0.503	0.531	0.356	0.818	0.757	0.796	0.441	0.726	0.764	0.679	0.444
NCI-H727	0.777	0.597	0.771	0.486	0.481	0.453	0.399	0.232	0.988	0.947	0.805	0.781	1.38	1.11	1.23	1.25	0.826	0.666	0.693	0.659
NCI-H838	1.1	0.961	1.16	0.823	0.285	0.277	0.318	0.293	0.507	0.454	0.429	0.373	–	0.798	0.882	0.503	0.776	0.744	0.735	0.215
NCI-H1355	1.02	0.96	1.11	1.03	0.74	0.627	0.816	0.54	0.353	0.308	0.336	0.321	0.752	0.563	0.662	0.505	–	0.753	0.685	0.411
NCI-H1395	1.21	0.714	1.05	0.633	0.454	0.371	0.423	0.329	0.732	–	0.772	0.743	0.872	–	1.06	0.748	0.517	–	0.515	0.394
NCI-H1437	0.865	0.654	0.773	0.346	0.416	0.288	0.421	0.142	0.536	0.524	0.626	0.393	0.782	0.783	0.705	0.307	0.633	0.585	0.493	0.254
NCI-H1650	0.96	0.776	0.787	0.224	0.366	0.33	0.296	0.172	0.443	0.61	0.49	0.439	0.505	0.567	0.633	0.424	0.684	0.741	0.707	0.643
NCI-H1651	0.912	0.696	0.849	0.365	0.456	0.35	0.612	0.13	0.658	0.564	0.577	0.501	0.504	0.461	0.6	0.542	0.18	0.174	0.187	0.178
NCI-H1666	0.594	0.674	0.739	0.598	0.913	0.788	0.829	–	0.834	0.774	0.727	0.616	1.01	0.873	1.05	0.966	0.785	0.765	0.721	–
NCI-H1734	1.06	0.991	0.951	0.663	0.536	0.402	0.402	0.357	0.479	0.445	0.484	0.431	0.936	0.708	0.752	0.631	0.609	0.541	0.563	0.601
NCI-H1755	1.03	0.999	0.994	0.869	0.419	0.436	0.409	0.35	0.72	0.715	0.753	0.634	0.81	0.702	0.843	0.549	0.912	0.797	0.856	0.748
